US10870639B2, “Pyrimidine compounds and pharmaceutical compositions for preventing or treating cancers including the same” (HANMI PHARM. CO., LTD., priority 2018, dated 2020)

Experiments:
[1] = Microsomal stability, human liver microsomes; format: in vitro ADME; settings: residual amount % after 1 hour, 37° C., 5 μM, 1 mg/ml microsomes, NADPH regenerating system
Procedure: To confirm the reactivity of the test substances with intra-hepatic CYP450 enzymes, 5 μM test substances and 1 mg/ml human liver microsomes were incubated for 1 hour at a temperature of 37° C. in the presence of an NADPH regenerating system. After 1 hour, acetonitrile was added to terminate the reaction, and the supernatant obtained by centrifugation was analyzed by HPLC. The remaining amount % was calculated using the following equation using the value of the reacted sample for 1 hour relative to the value of the 0-minute sample as the peak value obtained as an analysis result. (Peak value of the sample reacted for 1 hour/peak value of the sample at 0 minutes)×100=residual amount %

[2] = Microsomal stability, mice microsomes; format: in vitro ADME; settings: residual amount % after 1 hour, 37° C., 5 μM, NADPH regenerating system
MOLM-13 = assay: Cell growth inhibition (MTS), MOLM-13; format: cell-based; settings: Homo sapiens, MOLM-13, 72 h, incubation three days
Procedure: (§1) The human acute myelogenous leukemia […] cell line MOLM-13 (DSMZ no. ACC 554) was incubated in RPM11640 medium supplemented with 20% heat-inactivated FBS at a temperature of 37° C. The incubated cell line was prepared in an amount of 2.0×10^4 cells/100 μL, and then plated on a 96-well plate. The RPMI1640 medium was serially diluted with the test compounds at a concentration in a range of 1 μM to 0.01 nM at a ratio of 1:10. Subsequently, incubation was performed thereon for three days. For the human acute myelogenous leukemia cell line MV-4-11 cell line (ATCC® CRL-9591™), the cells were incubated at a temperature of 37° C. in IMDM medium supplemented with 10% FBS. The incubated cell line was prepared in an amount of 2×10^4 cells/100 μL, and then plated on a 96-well plate. The IMDM medium was treated with cascade dilution of three test compounds at a concentration in a range of 1 μM to 0.01 nM at a rate of 1/10. Subsequently, incubation was performed thereon for three days. MTS test was performed to measure cell viability, and the growth inhibition (GI50) value of the cell line was calculated using GraphPad Prism software.

MV-4-11 = assay: Cell growth inhibition (MTS), MV-4-11; format: cell-based; settings: Homo sapiens, MV4-11, 72 h, incubation three days
Procedure: as §1

SYK = SYK (Homo sapiens (Human), UniProt P43405); assay: z-LYTE kinase assay, SYK; format: biochemical; settings: compound concentration 100 nM
Procedure: The SYK inhibitory activity of the compounds was evaluated based on z-LYTE technology developed by Thermo Fisher Scientific Inc. According to this evaluation method, signals of the fluorescence of FRET-peptides are measured, wherein fluorescence of a FRET-peptide which is phosphorylated by the […] and fluorescence of a non-phosphorylated peptide are measured to identify an activity with respect to kinase. […] The background signal was measured in the absence of proteins; a non-inhibitory signal was measured only when the solvent (1% DMSO) was added; and an evaluation compound was used at a concentration of 100 nM to calculate the SYK inhibitory activity of the evaluation compound as a percentage (%).

VEGFR2 (KDR) = VEGFR2 (KDR) (Homo sapiens (Human), UniProt P35968); assay: z-LYTE kinase assay, VEGFR2; format: biochemical; settings: compound concentration 100 nM
FLT3 ITD = FLT3 ITD (Homo sapiens, UniProt P36888, ITD); assay: LanthaScreen kinase binding assay, FLT3 ITD
FLT3 ITD, sequence (P36888 whole entry, looked up, change not shown): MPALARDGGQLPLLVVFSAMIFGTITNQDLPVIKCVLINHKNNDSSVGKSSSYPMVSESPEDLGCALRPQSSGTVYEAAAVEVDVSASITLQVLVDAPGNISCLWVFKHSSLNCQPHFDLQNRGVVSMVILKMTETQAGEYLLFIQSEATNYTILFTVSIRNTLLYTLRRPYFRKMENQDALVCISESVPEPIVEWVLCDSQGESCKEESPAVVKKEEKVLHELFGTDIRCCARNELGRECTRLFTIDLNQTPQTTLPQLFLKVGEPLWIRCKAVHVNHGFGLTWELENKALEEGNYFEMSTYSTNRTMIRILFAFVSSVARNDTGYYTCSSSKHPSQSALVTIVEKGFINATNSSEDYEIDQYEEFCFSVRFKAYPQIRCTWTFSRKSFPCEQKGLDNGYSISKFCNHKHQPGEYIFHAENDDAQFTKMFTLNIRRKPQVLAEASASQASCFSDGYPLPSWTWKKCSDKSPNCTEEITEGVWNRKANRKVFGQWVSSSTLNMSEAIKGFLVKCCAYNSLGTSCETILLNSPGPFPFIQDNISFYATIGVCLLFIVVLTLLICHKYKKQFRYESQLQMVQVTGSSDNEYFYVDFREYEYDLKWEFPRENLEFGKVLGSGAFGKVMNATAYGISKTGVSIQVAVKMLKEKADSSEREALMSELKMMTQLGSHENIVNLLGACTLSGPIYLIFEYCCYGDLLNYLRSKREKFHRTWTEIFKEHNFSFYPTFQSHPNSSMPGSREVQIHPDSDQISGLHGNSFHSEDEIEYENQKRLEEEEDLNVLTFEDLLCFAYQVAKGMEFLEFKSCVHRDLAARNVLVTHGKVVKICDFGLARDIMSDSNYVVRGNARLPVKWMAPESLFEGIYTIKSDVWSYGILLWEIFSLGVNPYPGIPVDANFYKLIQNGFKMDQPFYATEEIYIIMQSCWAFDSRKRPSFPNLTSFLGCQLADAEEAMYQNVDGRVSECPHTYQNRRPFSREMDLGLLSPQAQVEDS
Procedure: The inhibitory activity of some of the compounds described above against FLT3-ITD, FLT3 wild type (WT), VEGFR2 (KDR), and SYK kinase was measured.
This experiment was carried out on a 384-well plate in conditions including 50 mM HEPES pH 7.5, 0.01% BRIJ-35, 10 mM MgCl2, 1 mM EGTA, and 1% DMSO.

VEGFR2 (KDR), sequence (P35968 20-1356): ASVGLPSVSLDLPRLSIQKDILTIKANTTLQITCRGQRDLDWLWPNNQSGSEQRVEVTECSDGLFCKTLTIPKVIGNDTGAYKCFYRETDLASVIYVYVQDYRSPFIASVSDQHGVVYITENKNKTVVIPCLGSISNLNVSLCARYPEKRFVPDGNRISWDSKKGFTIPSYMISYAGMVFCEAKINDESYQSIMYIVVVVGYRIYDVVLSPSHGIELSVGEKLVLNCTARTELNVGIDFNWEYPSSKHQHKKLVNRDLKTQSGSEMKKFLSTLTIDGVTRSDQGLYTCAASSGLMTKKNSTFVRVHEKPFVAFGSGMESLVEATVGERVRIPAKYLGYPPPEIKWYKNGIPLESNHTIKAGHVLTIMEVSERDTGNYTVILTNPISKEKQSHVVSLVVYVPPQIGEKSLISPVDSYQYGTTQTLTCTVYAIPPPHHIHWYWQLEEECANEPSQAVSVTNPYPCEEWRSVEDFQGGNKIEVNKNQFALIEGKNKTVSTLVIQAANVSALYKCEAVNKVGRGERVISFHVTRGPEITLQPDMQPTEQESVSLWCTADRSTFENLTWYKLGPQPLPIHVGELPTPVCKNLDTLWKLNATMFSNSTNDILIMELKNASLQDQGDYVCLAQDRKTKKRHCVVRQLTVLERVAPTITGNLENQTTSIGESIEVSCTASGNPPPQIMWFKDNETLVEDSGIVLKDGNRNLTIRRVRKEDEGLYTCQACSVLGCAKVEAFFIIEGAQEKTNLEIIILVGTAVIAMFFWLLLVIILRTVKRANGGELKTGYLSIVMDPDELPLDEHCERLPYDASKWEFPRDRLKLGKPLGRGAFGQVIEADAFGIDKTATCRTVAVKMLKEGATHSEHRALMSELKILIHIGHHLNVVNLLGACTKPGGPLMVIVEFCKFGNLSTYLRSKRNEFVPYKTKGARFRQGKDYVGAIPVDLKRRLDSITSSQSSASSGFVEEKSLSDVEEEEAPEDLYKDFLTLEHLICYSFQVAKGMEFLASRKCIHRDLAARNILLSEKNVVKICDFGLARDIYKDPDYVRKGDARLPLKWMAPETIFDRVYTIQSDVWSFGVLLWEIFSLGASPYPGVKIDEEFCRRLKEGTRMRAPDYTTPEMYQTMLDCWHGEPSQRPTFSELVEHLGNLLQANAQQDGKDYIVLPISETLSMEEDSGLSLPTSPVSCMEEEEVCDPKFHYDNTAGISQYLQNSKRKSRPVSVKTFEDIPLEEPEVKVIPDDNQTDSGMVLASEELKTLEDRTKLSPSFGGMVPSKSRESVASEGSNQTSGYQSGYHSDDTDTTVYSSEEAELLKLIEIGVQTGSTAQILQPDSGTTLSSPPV

Row | Human microsomal stability (%) [1] [%] | Mice microsomal stability (%) [2] [%] | GI50 (MOLM-13) [nM] | GI50 (MV-4-11) [nM] | inhibition at 0.1 µM (SYK) [%] | inhibition at 0.1 µM (VEGFR2 (KDR)) [%] | IC50 (FLT3 ITD) [nM] | SMILES
1 | 49 | 29 | – | – | – | – | – | CCN(CC)C1CCN(c2cc(Nc3ncc(Cl)c(-c4c[nH]c5cc(C)ccc45)n3)cc(C3CC3)c2)CC1 [Control Compound 6, reference compound]
2 | – | – | 4 | 1.2 | 73 | 95 | – | C[C@@H]1CN(Cc2cc(Nc3ncc(Cl)c(-c4c[nH]c5cc(F)ccc45)n3)cc(C3CC3)c2)C[C@H](C)N1 [Example 1, 5-chloro-N-(3-cyclopropyl-5-(((3R,5S)-3,5-dimethylpiperazine-1-yl)methyl)phenyl)-4-(6-fluoro-1H-indole-3-yl)pyrimidine-2-amine]
3 | – | – | 0.8 | 0.5 | 78 | 71 | 7.2 | Cc1ccc2c(-c3nc(Nc4cc(CN5C[C@@H](C)N(CCO)[C@@H](C)C5)cc(C5CC5)c4)ncc3Cl)c[nH]c2c1 [Example 5, 2-((2R,6S)-4-(3-((5-chloro-4-(6-methyl-1H-indole-3-yl)pyrimidine-2-yl)amino)-5-cyclopropylbenzyl)-2,6-dimethylpiperazine-1-yl)ethane-1-ol]
4 | – | – | 5.2 | 1.3 | 95 | 100 | – | Cc1ccc2c(-c3nc(Nc4cc(CN5C[C@@H](C)N[C@@H](C)C5)cc(C5CC5)c4)ncc3Cl)c[nH]c2c1 [Example 8, 5-chloro-N-(3-cyclopropyl-5-(((3R,5S)-3,5-dimethylpiperazine-1-yl)methyl)phenyl)-4-(6-methyl-1H-indole-3-yl)pyrimidine-2-amine]
5 | 72 | 69 | – | – | – | – | – | Cc1ccc2c(-c3nc(Nc4cc(CN5C[C@@H](C)NC6(CC6)C5)cc(C5CC5)c4)ncc3Cl)c[nH]c2c1 [Example 27, (R)-5-chloro-N-(3-cyclopropyl-5-((5-methyl-4,7-diazaspiro[2.5]octan-7-yl)methyl)phenyl)-4-(6-methyl-1H-indole-3-yl)pyrimidine-2-amine]
